Consider five compounds from patent publication US20080269346A1, “B-Blocker Pharmacogenetics in Heart Failure” (University of Florida Research Foundation, Inc., priority 2005, published 2008).

Data set [1] in a line: S-metoprolol plasma concentrations in heart failure patients on metoprolol CR/XL. The data set is classed as in vivo, human. Particulars: final metoprolol CR/XL dose, about 2 to 4 hours after dosing. The procedure:
After obtaining informed consent, a 5-mL blood sample for isolation of genomic DNA was collected. Baseline evaluations included a two-dimensional (2D) quantitative echocardiogram for determination of measures such as ejection fraction (EF}, left ventricular end-diastolic diameter (LVEDD), LV end-systolic diameter (LVESD), and completion of a 6-minute walk test. After completion of baseline studies, patients began metoprolol CR/XL. The starting dose of metoprolol CR/XL was 12.5 mg/day for patients in NYHA class III and 25 mg/day for patients in NYHA class II. The dose was doubled on a biweekly basis to 200 mg/day or maximum tolerated dose. Thus, the time for the up-titration period was 8-10 weeks depending on the starting dose of metoprolol CR/XL. Patients underwent a follow-up echocardiogram three months after the attainment of completion of up-titration or attainment of the maximum metoprolol CR/XL dose. Thus, at the time of the follow-up echocardiogram, patients had been receiving metoprolol CR/XL for approximately 5-5.5 months. In a subset of 42 patients who consented to additional blood draws, a pharmacokinetic blood sample was obtained approximately 2 to 4 hours following dosing after two weeks on each metoprolol CR/XL dose for determination of S-metoprolol (active isomer) concentrations.

In data set [2] the test system is heart failure patients. Particulars: concomitant drug in patients on metoprolol CR/XL; linear regression on final EF.
Description: Patients were recruited for this prospective study from the University of Florida and University of North Carolina Heart Failure Clinics. All clinicians involved in clinical decision making were blinded to the genotypic data and all investigators determining the genotypes were blinded to the patient's clinical course. The study was approved by the Institutional Review Board at each institution, and each patient gave written informed consent for participation in the study. The procedures followed were in accordance with institutional guidelines. The study population included patients aged ≧18 years with symptoms of heart failure in NYHA functional class II-III, and with an EF≦40%. […] Patients were not eligible for enrollment if they were receiving β-blocker therapy.
After obtaining informed consent, a 5-mL blood sample for isolation of genomic DNA was collected. […] Left ventricular dimensions at the mid-cavity or chordal level were measured from digitized end diastolic and end systolic parasternal long axis images of the left ventricle.
Patients were divided by genotype and compared for continuous parameters (e.g., LVEF, LVEDD) at baseline as well as changes in these parameters. Comparisons were made by unpaired t-test, ANOVA, Kruskal Wallis test, or Wilcoxon rank sum as appropriate. […]
The test system of data set [3] is heart failure patients. The experiment in a line: Heart failure study: ejection fraction and heart rate response by ADRA2C Ins/Del and ADRB1 Arg389Gly genotype. Particulars: concomitant drug in patients on metoprolol CR/XL. The data set is classed as in vivo, human.
Protocol: Inclusion criteria were age >18 years, NYHA functional class II-III, EF <40% and angiotensin-converting enzyme (ACE) inhibitor or angiotensin receptor blocker treatment on a stable dose for a minimum of four weeks. Patients receiving β-blocker therapy were not eligible.
At baseline, ejection fraction (EF), LV end-diastolic diameter (LVEDD) and LV endsystolic diameter (LVESD) were determined by a two-dimensional (2D) quantitative echocardiogram. Echocardiograms were analyzed by a single experienced echo-cardiologist. This individual had no knowledge of the clinical course or the genotyping results. […] The starting dose for patients in NYHA class II was 25 mg/day. […] Based on α of 0.05 and 80% power, at least 20 patients per genotype group (Ins/Ins or Del Carrier) were required to detect a difference of 6 EF units. […] Therefore, univariate linear regression models were used to predict end of study EF, LVEDD, or LVESD with the Ins/Del variable. […] The multivariate linear regressions included also variables that were significant in the univariate models. Three different step-type selection methods (backward elimination, forward elimination, and minimum R^2 improvement) were used to determine the best-fitting regression model from the maximum model. Model entry was set at P<0.1 and variables with P<0.05 stayed for the next step. […]
For data set [4], the system named is patients with heart failure. Conditions: Metra et al. 2000; cited from earlier work.
Data set [5] concerns hypertensive men and women. The data set can be described thus: Hypertension study: 24-hour ambulatory blood pressure response to metoprolol by ADRA2C Ins/Del genotype.
Protocol: In the hypertension study, 40 hypertensive men and women aged 35 to 65 years were studied. Hypertension was defined as untreated DBP between 95 mm Hg and 115 mm Hg (2 clinic visits, ≧5 minutes sitting). A certain range for systolic blood pressure (SBP) was not required for study entry. […] Medications for other indications were only allowed if it could not conceivably affect BP.
Patients took 50 mg metoprolol every 12 hours and BP was measured every week at the same time of the day to minimize the impact of diurnal BP variation. To achieve the goal DBP <90 mm Hg, the dose could be increased weekly to 100 mg and the maximum of 200 mg every 12 hours. Doses were not increased if the patient had intolerable side effects.
After the treatment phase, 24-hour ABP monitoring was repeated and blood samples for a pharmacokinetic analysis were taken.
Thus, univariate linear regression was used to model the DBP responses (24-hour, daytime) with the Ins/Del variable. […] This model would also include other, in the univariate model significant variables (P<0.1 for entry).

Structures are written as SMILES.

For the compound `COCCc1ccc(OCC(O)CNC(C)C)cc1.COCCc1ccc(OCC(O)CNC(C)C)cc1.O=C(O)CCC(=O)O` (stereo not shown) [metoprolol CR/XL], the “S-metoprolol plasma concentrations, median (interquartile range)” value is 31 ng/mL in data set [1] (Arg389 homozygotes) and 19 ng/mL in data set [1] (Gly 389 carriers).
In the case of `NS(=O)(=O)c1cc(C(=O)O)c(NCc2ccco2)cc1Cl` [Furosemide, furosemide], in data set [2], the “Parameter Estimate for use of the drug, multivariate analysis of change in Ejection Fraction” value is on record as 8.22 ejection fraction units.
As for `CC(=O)S[C@@H]1CC2=CC(=O)CC[C@]2(C)[C@H]2CC[C@@]3(C)[C@@H](CC[C@@]34CCC(=O)O4)[C@H]12` [Spironolactone, spironolactone], in data set [3], the “Parameter estimate for use of the drug, multiple regression of treatment ejection fraction” value is listed as 4.37. Besides, in data set [2], the “Parameter Estimate for use of the drug, multivariate analysis of change in Ejection Fraction” value is on record as 6.19 ejection fraction units.
Turning to `COCCc1ccc(OCC(O)CNC(C)C)cc1` (stereo not shown) [metoprolol], the “95% confidence intervals for the change in LVEF” value in data set [4] is reported as −8.2 to +22.6. In data set [5] (Del carrier), the “24-hour SBP change” value was −8.3±21.6, the “daytime SBP change” value is given as −9.4±21.7 and the “nighttime SBP change” value is listed as −4.7±22.2. Also, the “Nighttime DBP change” value in data set [5] (Del carriers) is given as 3.7±9.7 mm Hg. In data set [5] (Ins/Ins), the “24-hour SBP change” value is recorded as −8.8±16.4 mm Hg, the “Nighttime DBP change” value is on record as −8.0±8.8 mm Hg, the “daytime SBP change” value was −9.5±16.6 mm Hg and the “nighttime SBP change” value is −7.0±18.1 mm Hg. In data set [5] (all 40 hypertension patients), the adverse effects result is on record as “minor”.
Take `COc1ccccc1OCCNCC(O)COc1cccc2[nH]c3ccccc3c12` (stereo not shown) [carvedilol]: the “95% confidence intervals for the change in LVEF” value in data set [4] is given as −11.1 to +32.9.
